Reference: US20190231411A1, “METHOD FOR PREDICTING CYTOTOXICITY OF COLD ATMOSPHERIC PLASMA TREATMENT ON CANCER CELLS” (U.S. Patent Innovations, LLC, priority 2018, published 2019)

Tested on: B16F10 cells
Test: H2O2 treatment, MTT cell viability assay
Assay type: cell-based, murine
Conditions: compared with the other cell lines, FIG. 7B
Protocol: Cell cultures. The experiment investigated 10 cancer cell lines, which include many representative cell lines in plasma medicine. Human pancreas ductal adenocarcinoma cell line (PANC-1) was purchased from American Type Culture Collection (ATCC). Other cell lines were donated by several labs at the George Washington University. These cells were all purchased from ATCC by the different labs. Human pancreatic adenocarcinoma cell line (PA-TU-8988T), human glioblastoma cell line (U87MG), as well as human lung carcinoma cell line (A549) were provided by Dr. Murad's lab. Human breast cancer cell lines (MDA-MB-231, MCF-7) were provided by Dr. Zhang's lab. Human ovarian carcinoma cell line (SK-OV-3), human ovarian carcinoma cell line (IGROV-1), human colorectal carcinoma cell line (HCT116), as well as human bone osteosarcoma cell line (U-2 OS) were provided by Dr. Zhu's lab. Murine melanoma cell line (B16F10) was provided by Dr. Sotomayor's lab. […]
Cell viability assay. […] The absorbance at 570 nm was measured by a H1 microplate reader (Hybrid Technology). The measured absorbance was processed to be a relative cell viability by the division between the data of the experimental group and the control group.

OO [H2O2]
resistance to H2O2 treatment: strongest resistance to H2O2 treatment
